Reference: patent US20210301038A1, “POLYSIALIC ACID AND DERIVATIVES THEREOF, PHARMACEUTICAL COMPOSITION AND METHOD OF PRODUCING POLYSIALIC ACID” (Medizinische Hochschule Hannover (MHH), priority 2018, published 2021)

Tests used:
[1] = tested on: mPFC slices of AAV-GFP-Tau[R406W] infected mice; test: mPFC LTP in mice overexpressing GFP-Tau[R406W]; assay type: cell-based, mouse; details: bath application of 0.3 μM DP12; 50-60 min after induction
Method: Prefrontal slices (400 μm) were transferred to a submerged-type recording MC membrane chamber (volume 2 ml; Scientific Systems Design Inc., Mississauga, Ontario, Canada) perfused with oxygenated recording ACSF at a flow rate of 4 ml/min and maintained at room temperature (22-25° C.), unless stated otherwise in the “Results”-section given below. Field EPSPs were evoked and recorded using thin-walled glass electrodes (borosilicate glass, wall thickness 0.188, length 100, and outer diameter 1.5 mm, Hilgenberg, Malsfeld, Germany) filled with recording aCSF in 400 μm-thick mPFC slices. […]
Before LTP induction, basal synaptic transmission was recorded in each slice and the relationship between stimulus intensity and fEPSP slope was measured. […] The supramaximal slope was determined by gradually increasing the stimulation intensity until a population spike in the fEPSP became first visible. […]
LTP was induced by application of five trains of theta-burst stimulation (TBS) with an inter-theta-train interval of 20 s (Brennaman et al., 2011). […] For calculation of the LTP level, the mean fEPSP slope was measured between 50-60 min after TBS delivery, and it was then normalized to mean baseline fEPSP slope during 0-10 min before TBS. Stimulus artifacts in representative fEPSP examples in figures were blanked to facilitate the perception of fEPSPs recorded in the mPFC. […]

[2] = tested on: CA3-CA1 synapses in slices from 5×FAD mice; test: LTP in CA3-CA1 synapses in slices from 5×FAD mice; assay type: cell-based, mouse; details: bath application 1 μg/ml (approx. 0.3 μM)
Method: LTP was induced by application of five trains of theta-burst stimulation (TBS) with an inter-theta-train interval of 20 s (Brennaman et al., 2011). Each train consisted of 8 bursts delivered at 5 Hz. Each burst consisted of four pulses delivered at 100 Hz. Duration of pulses was 0.2 ms. For calculation of the LTP level, the mean fEPSP slope was measured between 50-60 min after TBS delivery, and it was then normalized to mean baseline fEPSP slope during 0-10 min before TBS. Stimulus artifacts in representative fEPSP examples in figures were blanked to facilitate the perception of fEPSPs recorded in the mPFC. Recording and analysis of LTP in St8Sia4^−/− mice was performed in a blind manner.
Finally, we tested if DP12 would have an effect in the 5×FAD mouse model of AD associated with amyloidosis and upregulation of extracellular glutamate and signaling through extra synaptic GluN2B receptors. Using a special slice incubation chamber with improved oxygen supply, we were able to induce LTP in CA3-CA1 synapses in slices from 5×FAD mice (FIG. 8).

(α(2→8)Neu5Ac)12 [DP12]
rescue of impaired mPFC LTP [1]: fully rescue LTP | LTP levels 50-60 min after theta-burst stimulation [2]: strongly increased
